SMILES strings stand for the structures. “And” between values parts separate entries of the source, which are not always exact repeats. Identical values can stand only once. Results filed as inconclusive are left out.

The experiment concerns BDF1 mice, colon carcinoma 38 sc, T/C %. Nature of the experiment: NCI In Vivo Anticancer Drug Screen. Data for tumor model Colon Carcinoma 38 (subcutaneous) in B6D2F1 (BDF1) mice. The essentials:
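Ratio of survival or tumor size, compound-treated animals relative to vehicle controls, in tumor-bearing mice.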

[1] abbreviates: endpoint: median tumor weight (est.), dose: 12.5 mg/kg/injection, schedule: Q07DX002 (ip), vehicle: Klucel (hydroxypropylcellulose) (HPC), higher = larger tumour.
The mark [2] stands for this setting: endpoint: median tumor weight (est.), dose: 50.0 mg/kg/injection, schedule: Q07DX002 (ip), vehicle: Klucel (hydroxypropylcellulose) (HPC), higher = larger tumour.
The mark [3] stands for this setting: endpoint: median tumor weight (est.), dose: 100.0 mg/kg/injection, schedule: Q07DX002 (ip), vehicle: saline with Tween-80, higher = larger tumour.
Where [4] appears, read: endpoint: median tumor weight (est.), dose: 200.0 mg/kg/injection, schedule: Q07DX002 (ip), vehicle: saline with Tween-80, higher = larger tumour.
The mark [5] stands for this setting: endpoint: median tumor weight (est.), dose: 2.0 mg/kg/injection, schedule: Q07DX002 (ip), vehicle: saline with Tween-80, higher = larger tumour.
Setting [6] is: endpoint: median tumor weight (est.), dose: 4.0 mg/kg/injection, schedule: Q07DX002 (ip), vehicle: saline with Tween-80, higher = larger tumour.
Where [7] appears, read: endpoint: median tumor weight (est.), dose: 8.0 mg/kg/injection, schedule: Q07DX002 (ip), vehicle: saline with Tween-80, higher = larger tumour.
Where [8] appears, read: endpoint: median tumor weight (est.), dose: 16.0 mg/kg/injection, schedule: Q07DX002 (ip), vehicle: saline with Tween-80, higher = larger tumour.
Where [9] appears, read: endpoint: median tumor weight (est.), dose: 3.12 mg/kg/injection, schedule: Q07DX002 (ip), vehicle: saline, higher = larger tumour.
Setting [10] is: endpoint: median tumor weight (est.), dose: 6.25 mg/kg/injection, schedule: Q07DX002 (ip), vehicle: saline, higher = larger tumour.
The mark [11] stands for this setting: endpoint: median tumor weight (est.), dose: 12.5 mg/kg/injection, schedule: Q07DX002 (ip), vehicle: saline, higher = larger tumour.
[12] abbreviates: endpoint: median tumor weight (est.), dose: 100.0 mg/kg/injection, schedule: Q07DX002 (ip), vehicle: Klucel (hydroxypropylcellulose) (HPC), higher = larger tumour.
The mark [13] stands for this setting: endpoint: median tumor weight (est.), dose: 400.0 mg/kg/injection, schedule: Q07DX002 (ip), vehicle: saline with Tween-80, higher = larger tumour.

As to `COc1cc(C)c2c(c1C=O)Oc1c(c(C)c(O)c3c1C(O)OC3=O)OC2=O` (configuration not stated), the T/C is 93 % of control (endpoint: median tumor weight (est.), dose: 3.12 mg/kg/injection, schedule: Q07DX003 (ip), vehicle: suspension in saline, higher = larger tumour); 60 % of control (endpoint: median tumor weight (est.), dose: 6.25 mg/kg/injection, schedule: Q07DX003 (ip), vehicle: suspension in saline, higher = larger tumour); 65 % of control (endpoint: median tumor weight (est.), dose: 12.5 mg/kg/injection, schedule: Q07DX003 (ip), vehicle: suspension in saline, higher = larger tumour); 93 % of control (endpoint: median tumor weight (est.), dose: 25.0 mg/kg/injection, schedule: Q07DX003 (ip), vehicle: suspension in saline, higher = larger tumour); 87 % of control (endpoint: median tumor weight (est.), dose: 50.0 mg/kg/injection, schedule: Q07DX003 (ip), vehicle: suspension in saline, higher = larger tumour).
`O=NN(CCF)C(=O)NC1CCCCC1`: the T/C by setting is: under setting [1], 77 % of control; under setting [2], 15 % of control.
Consider `CC(C)CC(NC(=O)CF)C(=O)O` (configuration not stated), for which the T/C runs as follows: (endpoint: median tumor weight (est.), dose: 0.62 mg/kg/injection, schedule: Q07DX002 (ip), vehicle: saline, higher = larger tumour) 46 % of control; (endpoint: median tumor weight (est.), dose: 0.63 mg/kg/injection, schedule: Q07DX002 (ip), vehicle: saline, higher = larger tumour) 75 % of control; (endpoint: median tumor weight (est.), dose: 1.25 mg/kg/injection, schedule: Q07DX002 (ip), vehicle: saline, higher = larger tumour) 94 % of control and 96 % of control; (endpoint: median tumor weight (est.), dose: 5.0 mg/kg/injection, schedule: Q07DX002 (ip), vehicle: saline, higher = larger tumour) 74 % of control and 76 % of control; (endpoint: median tumor weight (est.), dose: 10.0 mg/kg/injection, schedule: Q07DX002 (ip), vehicle: saline, higher = larger tumour) 71 % of control and 92 % of control.
On to `O=C1NC(=O)NC(C(=O)O)N1`, for which the T/C is 90 % of control (endpoint: median tumor weight (est.), dose: 56.25 mg/kg/injection, schedule: Q01DX001 (ip), vehicle: DMSO, higher = larger tumour); 122 % of control (endpoint: median tumor weight (est.), dose: 56.25 mg/kg/injection, schedule: Q07DX002 (ip), vehicle: DMSO, higher = larger tumour); 101 % of control (endpoint: median tumor weight (est.), dose: 112.5 mg/kg/injection, schedule: Q01DX001 (ip), vehicle: DMSO, higher = larger tumour); 121 % of control (endpoint: median tumor weight (est.), dose: 112.5 mg/kg/injection, schedule: Q07DX002 (ip), vehicle: DMSO, higher = larger tumour); 97 % of control (endpoint: median tumor weight (est.), dose: 225.0 mg/kg/injection, schedule: Q01DX001 (ip), vehicle: DMSO, higher = larger tumour); 75 % of control (endpoint: median tumor weight (est.), dose: 225.0 mg/kg/injection, schedule: Q07DX002 (ip), vehicle: DMSO, higher = larger tumour). Moreover, the T/C by setting is: (endpoint: median tumor weight (est.), dose: 450.0 mg/kg/injection, schedule: Q01DX001 (ip), vehicle: DMSO, higher = larger tumour) 97 % of control; (endpoint: median tumor weight (est.), dose: 450.0 mg/kg/injection, schedule: Q07DX002 (ip), vehicle: DMSO, higher = larger tumour) 101 % of control; (endpoint: median tumor weight (est.), dose: 900.0 mg/kg/injection, schedule: Q01DX001 (ip), vehicle: DMSO, higher = larger tumour) 71 % of control; (endpoint: median tumor weight (est.), dose: 900.0 mg/kg/injection, schedule: Q07DX002 (ip), vehicle: DMSO, higher = larger tumour) 108 % of control; (endpoint: median tumor weight (est.), dose: 1800.0 mg/kg/injection, schedule: Q07DX002 (ip), vehicle: DMSO, higher = larger tumour) 112 % of control.
`CS(=O)(=O)c1ncc(Br)cn1`: the T/C is, setting by setting: (endpoint: median tumor weight (est.), dose: 6.25 mg/kg/injection, schedule: Q07DX002 (ip), vehicle: saline with Tween-80, higher = larger tumour) 106 % of control; (endpoint: median tumor weight (est.), dose: 12.5 mg/kg/injection, schedule: Q07DX002 (ip), vehicle: saline with Tween-80, higher = larger tumour) 76 % of control; (endpoint: median tumor weight (est.), dose: 50.0 mg/kg/injection, schedule: Q07DX002 (ip), vehicle: saline with Tween-80, higher = larger tumour) 94 % of control; under setting [3], 113 % of control; under setting [4], 106 % of control.
With `CN(C)CCN1C(=O)c2cccc3cc(N)cc(c23)C1=O`, the T/C was 111 % of control under setting [5]; 97 % of control under setting [6]; 87 % of control and 88 % of control under setting [7]; 100 % of control under setting [8]; 55 % of control and 58 % of control (endpoint: median tumor weight (est.), dose: 64.0 mg/kg/injection, schedule: Q07DX002 (ip), vehicle: saline with Tween-80, higher = larger tumour).
Turning to `OCCN1CCN(CC/C=C2/c3ccccc3Sc3ccc(C(F)(F)F)cc32)CC1`, the T/C is 110 % of control (endpoint: median tumor weight (est.), dose: 1.56 mg/kg/injection, schedule: Q07DX002 (ip), vehicle: saline, higher = larger tumour); 121 % of control under setting [9]; 100 % of control under setting [10]; 95 % of control under setting [11]; 120 % of control (endpoint: median tumor weight (est.), dose: 25.0 mg/kg/injection, schedule: Q07DX002 (ip), vehicle: saline, higher = larger tumour); 68 % of control (endpoint: median tumor weight (est.), dose: 50.0 mg/kg/injection, schedule: Q07DX002 (ip), vehicle: saline, higher = larger tumour).
As for `CCCCCc1cc(/C=C2/N=C(c3ccc[nH]3)C=C2OC)[nH]c1C`, the T/C is, setting by setting: (endpoint: median tumor weight (est.), dose: 0.5 mg/kg/injection, schedule: Q07DX002 (ip), vehicle: saline with Tween-80, higher = larger tumour) 94 % of control; under setting [5], 163 % of control; under setting [6], 106 % of control; under setting [7], 120 % of control; under setting [8], 108 % of control.
For the compound `C[C@]12C=CC(=O)C=C1CC[C@@H]1[C@@H]2C(=O)C[C@@]2(C)[C@H]1CC[C@]2(O)C(=O)CO`, the T/C under setting [1] was 108 % of control; the T/C (endpoint: median tumor weight (est.), dose: 25.0 mg/kg/injection, schedule: Q07DX002 (ip), vehicle: Klucel (hydroxypropylcellulose) (HPC), higher = larger tumour) was 115 % of control; the T/C (endpoint: median tumor weight (est.), dose: 25.0 mg/kg/injection, schedule: Q07DX003 (ip), vehicle: Klucel (hydroxypropylcellulose) (HPC), higher = larger tumour) was 97 % of control; the T/C under setting [2] is 93 % of control and 102 % of control; the T/C (endpoint: median tumor weight (est.), dose: 50.0 mg/kg/injection, schedule: Q07DX003 (ip), vehicle: Klucel (hydroxypropylcellulose) (HPC), higher = larger tumour) was 100 % of control; the T/C under setting [12] was 110 % of control. Besides, the T/C was 76 % of control (endpoint: median tumor weight (est.), dose: 100.0 mg/kg/injection, schedule: Q07DX003 (ip), vehicle: Klucel (hydroxypropylcellulose) (HPC), higher = larger tumour); 81 % of control and 101 % of control (endpoint: median tumor weight (est.), dose: 200.0 mg/kg/injection, schedule: Q07DX002 (ip), vehicle: Klucel (hydroxypropylcellulose) (HPC), higher = larger tumour); 88 % of control (endpoint: median tumor weight (est.), dose: 200.0 mg/kg/injection, schedule: Q07DX003 (ip), vehicle: Klucel (hydroxypropylcellulose) (HPC), higher = larger tumour); 45 % of control (endpoint: median tumor weight (est.), dose: 400.0 mg/kg/injection, schedule: Q07DX003 (ip), vehicle: Klucel (hydroxypropylcellulose) (HPC), higher = larger tumour); 60 % of control (endpoint: median tumor weight (est.), dose: 800.0 mg/kg/injection, schedule: Q07DX002 (ip), vehicle: Klucel (hydroxypropylcellulose) (HPC), higher = larger tumour); 80 % of control (endpoint: median tumor weight (est.), dose: 1200.0 mg/kg/injection, schedule: Q07DX002 (ip), vehicle: Klucel (hydroxypropylcellulose) (HPC), higher = larger tumour).
For `CCCCCC[C@H]([C@H](C)O)n1cnc2c(N)ncnc21`, the T/C (endpoint: median survival time, dose: 22.0 mg/kg/injection, schedule: Q02DX006 (iv), vehicle: saline, higher = longer survival) was 113 % of control; the T/C (endpoint: median survival time, dose: 36.0 mg/kg/injection, schedule: Q02DX006 (iv), vehicle: saline, higher = longer survival) was 111 % of control; the T/C (endpoint: median survival time, dose: 58.0 mg/kg/injection, schedule: Q02DX006 (iv), vehicle: saline, higher = longer survival) is 92 % of control; the T/C (endpoint: median survival time, dose: 93.0 mg/kg/injection, schedule: Q02DX006 (iv), vehicle: saline, higher = longer survival) was 115 % of control; the T/C (endpoint: median tumor weight (est.), dose: 6.25 mg/kg/injection, schedule: Q07DX002 (ip), vehicle: Klucel (hydroxypropylcellulose) (HPC), higher = larger tumour) is 91 % of control; the T/C under setting [1] is 194 % of control. Besides, the T/C under setting [12] is 117 % of control and 103 % of control.
With `CC(Oc1ccccc1-c1ccccc1)C(=O)N(C)C` (configuration not stated), the T/C by setting is: under setting [3], 79 % of control and 82 % of control; under setting [4], 74 % of control and 78 % of control; under setting [13], 56 % of control and 75 % of control; (endpoint: median tumor weight (est.), dose: 800.0 mg/kg/injection, schedule: Q07DX002 (ip), vehicle: saline with Tween-80, higher = larger tumour) 49 % of control and 68 % of control.
`CCCCCC1c2cc(O)ccc2OC1N1CCOCC1` (configuration not stated): the T/C was 107 % of control (endpoint: median tumor weight (est.), dose: 12.0 mg/kg/injection, schedule: Q07DX002 (ip), vehicle: saline with Tween-80, higher = larger tumour); 161 % of control (endpoint: median tumor weight (est.), dose: 25.0 mg/kg/injection, schedule: Q07DX002 (ip), vehicle: saline with Tween-80, higher = larger tumour); 169 % of control under setting [3]; 55 % of control under setting [4]; 170 % of control under setting [13]; 120 % of control (endpoint: median tumor weight (est.), dose: 450.0 mg/kg/injection, schedule: Q07DX002 (ip), vehicle: saline with Tween-80, higher = larger tumour). Moreover, where the note is “endpoint: median tumor weight (est.), dose: 900.0 mg/kg/injection, schedule: Q07DX002 (ip), vehicle: saline with Tween-80, higher = larger tumour”, the T/C is 154 % of control.
For `O=c1[nH]c(=O)n(C2OC(CO)C(O)C2O)cc1F` (configuration not stated), the T/C reads like this: under setting [9], 121 % of control; under setting [10], 106 % of control; under setting [11], 64 % of control.

The values above are taken from PubChem BioAssay AID212 (DTP/NCI, 2004).
